Settings: Liquid, Vibrating tube method

CC(C)CO [2-methyl-1-propanol]
Settings | mass density [kg/m3]
323.15 K, 32903 kPa | 805.081
323.15 K, 33102 kPa | 805.154
323.15 K, 33950 kPa | 805.707
323.15 K, 34958 kPa | 806.425
323.15 K, 37883 kPa | 808.369
323.15 K, 39891 kPa | 809.68
323.15 K, 42065 kPa | 811.076
323.15 K, 44846 kPa | 812.852
323.15 K, 49935 kPa | 815.968
323.15 K, 52064 kPa | 817.249
323.15 K, 54897 kPa | 818.944
323.15 K, 57818 kPa | 820.634
323.15 K, 59855 kPa | 821.787
323.15 K, 61856 kPa | 822.928
323.15 K, 64838 kPa | 824.6
323.15 K, 65957 kPa | 825.209
323.16 K, 1117.8 kPa | 779.897
323.16 K, 47886 kPa | 814.721
328.15 K, 96.5 kPa | 774.907
328.15 K, 395.8 kPa | 775.157
328.15 K, 904.1 kPa | 775.603
328.15 K, 1030.6 kPa | 775.74
328.15 K, 2999.3 kPa | 777.646
328.15 K, 5042 kPa | 779.515
328.15 K, 10121 kPa | 784.077
328.15 K, 11905 kPa | 785.621
328.15 K, 24953 kPa | 795.929
328.15 K, 27874 kPa | 798.098
328.15 K, 29949 kPa | 799.588
328.15 K, 31948 kPa | 800.996
328.15 K, 33061 kPa | 801.681
328.15 K, 34111 kPa | 802.415
328.15 K, 34984 kPa | 803.007
328.15 K, 37913 kPa | 805.001
328.15 K, 41958 kPa | 807.674
328.15 K, 44806 kPa | 809.5
328.15 K, 55150 kPa | 815.995
328.15 K, 58100 kPa | 817.75
328.15 K, 60045 kPa | 818.881
328.15 K, 62082 kPa | 820.048
328.15 K, 66095 kPa | 822.334
328.16 K, 515 kPa | 775.262
328.16 K, 2069.7 kPa | 776.794
328.16 K, 6936.7 kPa | 781.257
328.16 K, 8874.2 kPa | 782.985
328.16 K, 14954 kPa | 788.149
328.16 K, 17891 kPa | 790.513
328.16 K, 20040 kPa | 792.21
328.16 K, 22054 kPa | 793.773
328.16 K, 33018 kPa | 801.745
328.16 K, 39966 kPa | 806.346
328.16 K, 47820 kPa | 811.414
328.16 K, 49817 kPa | 812.637
328.16 K, 52099 kPa | 814.145
328.16 K, 64955 kPa | 821.692
333.15 K, 95.7 kPa | 770.629
333.15 K, 913.6 kPa | 771.467
333.15 K, 6965.6 kPa | 777.259
333.15 K, 8937.3 kPa | 779.076
333.15 K, 9995.1 kPa | 780.005
333.15 K, 11970 kPa | 781.72
333.15 K, 14915 kPa | 784.255
333.15 K, 22033 kPa | 790.027
333.15 K, 29996 kPa | 796.045
333.15 K, 31986 kPa | 797.49
333.15 K, 32928 kPa | 798.124
333.15 K, 41792 kPa | 804.162
333.15 K, 47830 kPa | 808.087
333.15 K, 49895 kPa | 809.38
333.15 K, 51876 kPa | 810.61
333.15 K, 54830 kPa | 812.44
333.15 K, 58116 kPa | 814.429
333.15 K, 59975 kPa | 815.509
333.15 K, 61974 kPa | 816.676
333.15 K, 65057 kPa | 818.467
333.15 K, 66042 kPa | 819.039
333.16 K, 295.9 kPa | 770.818
333.16 K, 574.5 kPa | 771.11
333.16 K, 1069.5 kPa | 771.621
333.16 K, 2110.6 kPa | 772.649

— the NIST ThermoML archive (doi:10.1021/je5010214)
